In the supplement of paper PMC10307832:

Columns and labels:
Experiment in all cases: relative viability (nuclei count vs DMSO), 5 days (fraction); higher = more cells survive
Carfilzomib + Foretinib = compound: CC(C)C[C@H](NC(=O)[C@H](CCc1ccccc1)NC(=O)CN1CCOCC1)C(=O)N[C@@H](Cc1ccccc1)C(=O)N[C@@H](CC(C)C)C(=O)[C@@]1(C)CO1 [Carfilzomib] + COc1cc2c(Oc3ccc(NC(=O)C4(C(=O)Nc5ccc(F)cc5)CC4)cc3F)ccnc2cc1OCCCN1CCOCC1 [Foretinib] (partner 0.25 µM)
Summary of the method: (§1)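 The day after seeding in 1536-well plates, lung cancer cell lines were treated by pin tool with a single drug, or with a fixed anchor-drug dose together with five library-drug doses (not always all listed) in √10 steps. After 5 days, a combined fix-and-stain solution (final 0.05% Triton X-100, 1% formaldehyde, 1 ug/ml Hoechst) was added. Nuclei counted on 4× images gave relative viability as treated counts over vehicle counts, reported as the median of duplicate plates.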

Carfilzomib + Tozasertib = compound: CC(C)C[C@H](NC(=O)[C@H](CCc1ccccc1)NC(=O)CN1CCOCC1)C(=O)N[C@@H](Cc1ccccc1)C(=O)N[C@@H](CC(C)C)C(=O)[C@@]1(C)CO1 [Carfilzomib] + Cc1cc(Nc2cc(N3CCN(C)CC3)nc(Sc3ccc(NC(=O)C4CC4)cc3)n2)n[nH]1 [Tozasertib] (partner 0.1 µM)
Summary of the method: as §1

Carfilzomib + Pemetrexed = compound: CC(C)C[C@H](NC(=O)[C@H](CCc1ccccc1)NC(=O)CN1CCOCC1)C(=O)N[C@@H](Cc1ccccc1)C(=O)N[C@@H](CC(C)C)C(=O)[C@@]1(C)CO1 [Carfilzomib] + Nc1nc2[nH]cc(CCc3ccc(C(=O)N[C@@H](CCC(=O)O)C(=O)O)cc3)c2c(=O)[nH]1 [Pemetrexed] (partner 0.2 µM)
Summary of the method: as §1

Crizotinib + Bortezomib = compound: C[C@@H](Oc1cc(-c2cnn(C3CCNCC3)c2)cnc1N)c1c(Cl)ccc(F)c1Cl [Crizotinib] + CC(C)C[C@H](NC(=O)[C@H](Cc1ccccc1)NC(=O)c1cnccn1)B(O)O [Bortezomib] (partner 0.002 µM)
Summary of the method: as §1

Row | Cell Line | relative viability (Carfilzomib + Foretinib; first compound 0.001 µM) | relative viability (Carfilzomib + Foretinib; first compound 0.003162 µM) | relative viability (Carfilzomib + Foretinib; first compound 0.01 µM) | relative viability (Carfilzomib + Foretinib; first compound 0.03162 µM) | relative viability (Carfilzomib + Foretinib; first compound 0.1 µM) | relative viability (Carfilzomib + Tozasertib; first compound 0.001 µM) | relative viability (Carfilzomib + Tozasertib; first compound 0.003162 µM) | relative viability (Carfilzomib + Tozasertib; first compound 0.01 µM) | relative viability (Carfilzomib + Tozasertib; first compound 0.03162 µM) | relative viability (Carfilzomib + Tozasertib; first compound 0.1 µM) | relative viability (Carfilzomib + Pemetrexed; first compound 0.001 µM) | relative viability (Carfilzomib + Pemetrexed; first compound 0.003162 µM) | relative viability (Carfilzomib + Pemetrexed; first compound 0.01 µM) | relative viability (Carfilzomib + Pemetrexed; first compound 0.03162 µM) | relative viability (Carfilzomib + Pemetrexed; first compound 0.1 µM) | relative viability (Crizotinib + Bortezomib; first compound 0.01 µM) | relative viability (Crizotinib + Bortezomib; first compound 0.03162 µM) | relative viability (Crizotinib + Bortezomib; first compound 0.1 µM) | relative viability (Crizotinib + Bortezomib; first compound 0.3162 µM) | relative viability (Crizotinib + Bortezomib; first compound 1 µM)
1 | LCLC-97TM1 | 0.958 | 0.874 | 0.893 | 0.529 | 0.25 | 0.25 | 0.263 | 0.215 | 0.205 | 0.107 | 0.164 | 0.176 | 0.173 | 0.167 | 0.0627 | 0.641 | 0.601 | 1.09 | 0.435 | 0.519
2 | LCLC-103H | 0.772 | 0.714 | 0.814 | 0.646 | 0.225 | 0.467 | 0.511 | 0.408 | 0.518 | 0.169 | 0.483 | 0.459 | 0.529 | 0.446 | 0.404 | 1.06 | 1.04 | 1.11 | 1.09 | 1.16
3 | LOU-NH91 | 0.934 | 1.04 | 0.875 | 0.303 | 0.224 | 0.742 | 0.801 | 0.635 | 0.289 | 0.246 | 0.368 | 0.451 | 0.471 | 0.314 | 0.335 | 0.457 | 0.465 | 0.451 | 0.484 | 0.458
4 | LU99A | 0.943 | 0.772 | 0.847 | 0.565 | 0.246 | 0.282 | 0.286 | 0.326 | 0.306 | 0.123 | 0.191 | 0.163 | 0.18 | 0.214 | 0.188 | 1.1 | 1.14 | 1.14 | 1.07 | 1.04
5 | LXF-289 | 1 | 0.945 | 0.948 | 0.464 | 0.0789 | 0.186 | 0.186 | 0.104 | 0.0498 | 0.0494 | 0.947 | 0.933 | 0.909 | 0.108 | 0.125 | 0.917 | 0.972 | 1.01 | 0.85 | 0.967
6 | NCI-H23 | 0.873 | 1.11 | 1.09 | 0.188 | 0.134 | 0.382 | 0.428 | 0.376 | 0.122 | 0.13 | 0.532 | 0.666 | 0.508 | 0.165 | 0.169 | 1.02 | 1.09 | 1.03 | – | 0.979
7 | NCI-H322M | 0.981 | 1.01 | 0.999 | 0.943 | 0.359 | 0.473 | 0.52 | 0.556 | 0.433 | 0.337 | 0.592 | 0.637 | 0.64 | 0.657 | 0.421 | 1.19 | 1.23 | 1.24 | 1.29 | 1.38
